Conditions: Liquid; for viscosity / mass density: 101.33 kPa; for viscosity: Capillary tube (Ostwald / Ubbelohde) method; for mass density: Pycnometric method; for vapor or sublimation pressure: Ebulliometric method (Recirculating still)

CCCCCCCCCCCCCCCC(=O)OCC(CC)CCCC (stereo unspecified) [2-ethylhexyl palmitate]
Conditions	mass density [kg/m3]	vapor or sublimation pressure [kPa]	viscosity [mPa·s]
298.15 K	855.1	–	11.78
303.15 K	851	–	10.01
308.15 K	847.9	–	8.28
313.15 K	844.5	–	7.16
318.15 K	840.9	–	6.26
323.15 K	837.4	–	5.64
328.15 K	834	–	4.94
333.15 K	830.3	–	4.41
338.15 K	826.7	–	3.94
343.15 K	823.3	–	3.55
348.15 K	820.1	–	3.24
353.15 K	816.8	–	2.94
358.15 K	813.2	–	2.71
363.15 K	810	–	2.49
368.15 K	806.9	–	2.29
476.95 K	–	0.307	–
479.35 K	–	0.333	–
482.35 K	–	0.387	–
484.95 K	–	0.427	–
488.05 K	–	0.493	–
490.35 K	–	0.547	–
491.45 K	–	0.573	–
493.85 K	–	0.627	–
496.05 K	–	0.68	–
497.35 K	–	0.733	–
499.35 K	–	0.8	–
500.85 K	–	0.853	–

CCCCCCCCCCCCCCCCCC(=O)OCC(CC)CCCC (stereo unspecified) [2-ethylhexyl stearate]
Conditions	mass density [kg/m3]	vapor or sublimation pressure [kPa]	viscosity [mPa·s]
298.15 K	855.4	–	15.04
303.15 K	851.4	–	12.55
308.15 K	847.9	–	10.62
313.15 K	844.9	–	9.06
318.15 K	841.1	–	7.84
323.15 K	837.7	–	6.81
328.15 K	834.4	–	6.04
333.15 K	831.1	–	5.34
338.15 K	827.8	–	4.79
343.15 K	824.5	–	4.36
348.15 K	821.1	–	3.92
353.15 K	817.2	–	3.58
358.15 K	814.2	–	3.27
363.15 K	811.2	–	3.02
368.15 K	808	–	2.8
477.05 K	–	0.213	–
479.65 K	–	0.253	–
482.25 K	–	0.28	–
483.45 K	–	0.307	–
485.25 K	–	0.333	–
487.55 K	–	0.373	–
488.85 K	–	0.4	–
491.25 K	–	0.44	–
493.25 K	–	0.493	–
495.25 K	–	0.547	–
496.25 K	–	0.573	–
498.05 K	–	0.613	–

CCCCCCCCCCCCCCCC(=O)OC [methyl hexadecanoate]
Conditions	vapor or sublimation pressure [kPa]
419.15 K	0.213
423.15 K	0.279
425.25 K	0.306
428.35 K	0.346
430.75 K	0.399
432.25 K	0.425
433.35 K	0.452
436.25 K	0.532
438.45 K	0.585
440.15 K	0.624
442.35 K	0.705
444.15 K	0.771

Source: the NIST ThermoML archive (doi:10.1016/j.jct.2018.10.012)
